Test [1] concerns Fusarium solani. Description: Antifungal activity against Fusarium solani by agar well diffusion method. Format: functional. (In agar diffusion tests the substance spreads into inoculated agar from a disc or well.)
For the next test, the system named is Staphylococcus aureus. The test is described as follows: Antibacterial activity against Staphylococcus aureus by agar well diffusion method. Format: functional.
For test [2], the system named is THP-1. Description: Anti-inflammatory activity in Homo sapiens (human) THP1 cells assessed as inhibition of LPS-induced TNF-alpha production preincubated at 10 uM for 30 min before LPS treatment measured after 24 hr by ELISA. Format: functional.
Test [3] relates to THP-1. The test is described as follows: Anti-inflammatory activity in Homo sapiens (human) THP1 cells assessed as inhibition of LPS-induced IL-6 production preincubated at 10 uM for 30 min before LPS treatment measured after 24 hr by ELISA. Format: functional. A general note: In an ELISA, binding on a coated surface is turned into a signal by an enzyme label.
Test [4] concerns Aspergillus flavus. The test is described as follows: Antifungal activity against Aspergillus flavus by agar well diffusion method. Format: functional.
In another test the test system is Escherichia coli. Description: Antibacterial activity against Escherichia coli by agar well diffusion method. Format: functional.
The next test deals with Aspergillus niger. Description: Antifungal activity against Aspergillus niger by agar well diffusion method. Format: functional.
For another test, the system named is Candida albicans. The test is described as follows: Antifungal activity against Candida albicans by agar well diffusion method. Format: functional.
The next test concerns Salmonella typhimurium. The test is described as follows: Antibacterial activity against Salmonella enterica subsp. enterica serovar Typhimurium by agar well diffusion method. Format: functional.
Test [5] concerns Bacillus subtilis. Description: Antibacterial activity against Bacillus subtilis by agar well diffusion method. Format: functional.
Test [6] deals with Aspergillus flavus. Description: Antifungal activity against Aspergillus flavus up to 200 ug/ml by agar well diffusion method. Format: functional, organism-based.
For test [7], the system named is Fusarium solani. The test is described as follows: Antifungal activity against Fusarium solani up to 200 ug/ml by agar well diffusion method. Format: functional, organism-based.
Test [8] deals with Bacillus subtilis. The test is described as follows: Antibacterial activity against Bacillus subtilis up to 200 ug/ml by agar well diffusion method. Format: functional, organism-based.

Values after ≈ are worked out from the molar mass of the structure shown. Active and inactive are the calls of the source. The rule behind the calls is not given here.

Turning to `CCOC(=O)C1=C(C)NC(=S)NC1c1ccc(NC(=O)Nc2ccccc2Oc2ccccc2)cc1` (centres undefined), the MIC (as a rule, the lowest concentration found to suppress growth) with Fusarium solani [1] was determined as 45 µg/mL (≈ 89.5 µM); against Staphylococcus aureus, 55 µg/mL (≈ 109 µM); against Aspergillus flavus [4], 35 µg/mL (≈ 69.6 µM); in the test with Escherichia coli, 85 µg/mL (≈ 169 µM); against Aspergillus niger it was 60 µg/mL (≈ 119 µM); against Candida albicans it was 40 µg/mL (≈ 79.6 µM). The MIC in the test on Salmonella typhimurium was found to be 65 µg/mL (≈ 129 µM); with Bacillus subtilis [5] it was 60 µg/mL (≈ 119 µM). Also, the inhibition (usually how much of the control response was suppressed) at 10 µM in the test with THP-1 [2] came to 0%; in the test with THP-1 [3], 42%.

For `O=C(O)c1cn(C2CC2)c2cc(N3CCNCC3)c(F)cc2c1=O` [CIPROFLOXACIN], the MIC is 15 µg/mL (≈ 45.3 µM) with Escherichia coli, 25 µg/mL (≈ 75.4 µM) against Salmonella typhimurium and 25 µg/mL (≈ 75.4 µM) in the test on Bacillus subtilis [5].

For the molecule `CCOC(=O)C1=C(C)NC(=S)NC1c1ccc(N)cc1` (centres undefined), the MIC with Fusarium solani [1] is 35 µg/mL (≈ 120 µM); against Staphylococcus aureus, 60 µg/mL (≈ 206 µM); against Aspergillus flavus [4], 80 µg/mL (≈ 275 µM); against Escherichia coli, 40 µg/mL (≈ 137 µM); against Aspergillus niger it was 55 µg/mL (≈ 189 µM); against Candida albicans, 55 µg/mL (≈ 189 µM). For the same molecule, the minimum inhibitory concentration (MIC) in the test on Salmonella typhimurium was found to be 45 µg/mL (≈ 154 µM); in the test with Bacillus subtilis [5], 85 µg/mL (≈ 292 µM). Moreover, the inhibition at 10 µM stood at 0% in the test with THP-1 [2] and 3% in the test on THP-1 [3].

For `CCOC(=O)C1=C(C)NC(=S)NC1c1ccc(NC(=S)Nc2ccccc2F)cc1` (centres undefined), the MIC in the test with Fusarium solani [1] was 15 µg/mL (≈ 33.7 µM); against Staphylococcus aureus, 10 µg/mL (≈ 22.5 µM); with Aspergillus flavus [4], 15 µg/mL (≈ 33.7 µM); in the test on Escherichia coli, 10 µg/mL (≈ 22.5 µM); against Aspergillus niger, 10 µg/mL (≈ 22.5 µM); against Candida albicans, 10 µg/mL (≈ 22.5 µM). The MIC was determined as 15 µg/mL (≈ 33.7 µM) against Salmonella typhimurium and 25 µg/mL (≈ 56.2 µM) in the test with Bacillus subtilis [5]. The inhibition at 10 µM came out at 0% in the test with THP-1 [2] and 22% in the test with THP-1 [3].

`CCOC(=O)C1=C(C)NC(=S)NC1c1ccc(NC(=S)Nc2ccccc2C(F)(F)F)cc1` (centres undefined): the MIC with Fusarium solani [1] came out at 20 µg/mL (≈ 40.4 µM); with Staphylococcus aureus, 10 µg/mL (≈ 20.2 µM); in the test on Aspergillus flavus [4], 20 µg/mL (≈ 40.4 µM); against Escherichia coli, 15 µg/mL (≈ 30.3 µM); in the test with Aspergillus niger, 50 µg/mL (≈ 101 µM); in the test on Candida albicans, 20 µg/mL (≈ 40.4 µM). Also, the MIC worked out at 40 µg/mL (≈ 80.9 µM) with Salmonella typhimurium and 10 µg/mL (≈ 20.2 µM) in the test with Bacillus subtilis [5]. For the same molecule, the figures for the inhibition at 10 µM with THP-1 [2] and in the test with THP-1 [3] were 8% and 18%, respectively.

Turning to `CCOC(=O)C1=C(C)NC(=S)NC1c1ccc(NC(=S)Nc2ccc(OC)cc2)cc1` (centres undefined), the MIC against Staphylococcus aureus amounted to 10 µg/mL (≈ 21.9 µM); in the test on Escherichia coli, 10 µg/mL (≈ 21.9 µM); against Salmonella typhimurium, 25 µg/mL (≈ 54.8 µM); against Bacillus subtilis [5] it was 40 µg/mL (≈ 87.6 µM). Further, the results for the inhibition at 10 µM with THP-1 [2] and with THP-1 [3] were 0% and 48%, respectively.

As to `CCOC(=O)C1=C(C)NC(=S)NC1c1ccc(NC(=S)Nc2c(F)cccc2Cl)cc1` (centres undefined), the MIC in the test on Staphylococcus aureus was found to be 60 µg/mL (≈ 125 µM); in the test on Escherichia coli, 85 µg/mL (≈ 177 µM); against Aspergillus niger, 85 µg/mL (≈ 177 µM); against Candida albicans, 65 µg/mL (≈ 136 µM); against Salmonella typhimurium, 60 µg/mL (≈ 125 µM); against Bacillus subtilis [5], 80 µg/mL (≈ 167 µM). The inhibition at 10 µM with THP-1 [2] came to 42%; in the test with THP-1 [3] it was 56%. The result with Aspergillus flavus [6] and in the test with Fusarium solani [7] was inactive.

Regarding `CCOC(=O)C1=C(C)NC(=S)NC1c1ccc(NC(=S)Nc2c(Cl)cccc2C(F)(F)F)cc1` (centres undefined), the MIC in the test with Staphylococcus aureus amounted to 65 µg/mL (≈ 123 µM); in the test with Aspergillus flavus [4], 90 µg/mL (≈ 170 µM); in the test on Escherichia coli, 90 µg/mL (≈ 170 µM); with Aspergillus niger, 90 µg/mL (≈ 170 µM); against Candida albicans, 85 µg/mL (≈ 161 µM); against Salmonella typhimurium it was 90 µg/mL (≈ 170 µM). In addition, the inhibition at 10 µM in the test on THP-1 [2] is 46%; in the test with THP-1 [3] it was 62%. For the same molecule, the outcome in the test with Bacillus subtilis [8] and in the test on Fusarium solani [7] was inactive.

Regarding `CCOC(=O)C1=C(C)NC(=S)NC1c1ccc(NC(=S)Nc2cccc(C(F)(F)F)c2)cc1` (centres undefined), the MIC against Fusarium solani [1] was 15 µg/mL (≈ 30.3 µM); with Staphylococcus aureus, 20 µg/mL (≈ 40.4 µM); against Aspergillus flavus [4], 15 µg/mL (≈ 30.3 µM); against Escherichia coli it was 20 µg/mL (≈ 40.4 µM); with Aspergillus niger it was 25 µg/mL (≈ 50.5 µM); in the test on Candida albicans, 15 µg/mL (≈ 30.3 µM). Further, the results for the MIC against Salmonella typhimurium and in the test with Bacillus subtilis [5] were 15 µg/mL (≈ 30.3 µM) and 35 µg/mL (≈ 70.8 µM), respectively. Moreover, the inhibition at 10 µM with THP-1 [2] was 0%; in the test on THP-1 [3], 16%.

On to `CCOC(=O)C1=C(C)NC(=S)NC1c1ccc(NC(=S)Nc2c(C)cccc2F)cc1` (centres undefined), for which the MIC against Fusarium solani [1] turned out to be 65 µg/mL (≈ 142 µM); with Staphylococcus aureus, 90 µg/mL (≈ 196 µM); in the test on Aspergillus flavus [4] it was 60 µg/mL (≈ 131 µM); in the test on Escherichia coli, 70 µg/mL (≈ 153 µM); against Aspergillus niger, 55 µg/mL (≈ 120 µM); against Candida albicans, 50 µg/mL (≈ 109 µM). Also, in the test on Salmonella typhimurium, the MIC was found to be 90 µg/mL (≈ 196 µM). The inhibition at 10 µM with THP-1 [2] turned out to be 0%; in the test with THP-1 [3], 16%. Further, in the test on Bacillus subtilis [8], the result was inactive.

Consider `CCOC(=O)C1=C(C)NC(=S)NC1c1ccc(NC(=S)Nc2ccccc2Cl)cc1` (centres undefined), for which the MIC amounted to 10 µg/mL (≈ 21.7 µM) against Fusarium solani [1]; 20 µg/mL (≈ 43.4 µM) against Staphylococcus aureus; 15 µg/mL (≈ 32.5 µM) against Aspergillus flavus [4]; 10 µg/mL (≈ 21.7 µM) in the test with Escherichia coli; 10 µg/mL (≈ 21.7 µM) with Aspergillus niger; 10 µg/mL (≈ 21.7 µM) in the test on Candida albicans. The results for the minimal inhibitory concentration (MIC) against Salmonella typhimurium and in the test on Bacillus subtilis [5] were 20 µg/mL (≈ 43.4 µM) and 35 µg/mL (≈ 75.9 µM), respectively. Moreover, the inhibition at 10 µM worked out at 0% in the test on THP-1 [2] and 36% with THP-1 [3].

The values are drawn from ChEMBL document CHEMBL3045793, “The synthesis, anti-inflammatory and antimicrobial activity evaluation of novel thioanalogs of 3,4-dihydrothiopyrimidin-2(1H)-one derivatives of N-aryl urea” (2012).
